Data set [1] concerns 5-hydroxytryptamine receptor 2C (Homo sapiens), P28335 [D134A]. As to the kind of experiment: Agonist activity at 5HT2CR D134A mutant (unknown origin) expressed in HEK293 cells assessed as IP1 level by HTRF IP1 competitive binding assay. Format: cell-based.
Data set [2] can be described thus: Ratio of drug concentration in male Sprague-Dawley rat brain to plasma at 5 mg/kg, IG measured after 1 hrs by LC-MS/MS analysis. Format: ADME, organism-based. The following applies: brain and plasma, po, read-out: BPR.
Data set [3] relates to Mus musculus. Kind of data set: Antipsychotic activity against MK-801 induced hypermobilization in male C57BL/6J mouse model assessed as reduction in hypermobilization state at 3 mg/kg, IG pretreated with compound followed by MK-801 addition and measured after 30 mins by open field test. Format: functional, organism-based.
In data set [4] the test system is Mus musculus. As to the kind of experiment: Antipsychotic activity against DOI-induced head-twitch response in mouse assessed as reduction in head-twitch response administered intragastrically and measured for 30 mins. Format: functional, organism-based. The following applies: dose 1-10 mg/kg.
For data set [5], the system named is Mus musculus. Kind of data set: Antidepressant activity in chronic social defeat stress induced depressive C57BL/6J mouse model assessed as increase in time of interaction zone administered intragastrically measured after 15 mins by open field test. The following applies: dose 0.5-2 mg/kg. It counts as functional, organism-based.
The test system of data set [6] is Mus musculus. As to the kind of experiment: Antipsychotic activity against DOI-induced head-twitch response in mouse assessed as reduction in head-twitch response at 10 mg/kg, IG measured for 30 mins relative to control. It counts as functional. Details: scale not given: the % may be the effect or the level left. The following applies: 0.5 h.
Data set [7] has as its target 5-hydroxytryptamine receptor 7 (Homo sapiens, UniProt P34969). As to the kind of experiment: Agonist activity at recombinant human 5-HT7 expressed in HEK293 cells by FLIPR calcium assay. Format: functional, cell-based.
A further data set deals with D(2) dopamine receptor (Homo sapiens, UniProt P14416). Kind of data set: Antagonist activity at human D2L receptor expressed in Flp-In-CHO cells. It counts as cell-based.
In data set [8] the target is GABA-A receptor; anion channel (Homo sapiens) (UniProt P14867+P47870+P18507+P28472+P48169+Q99928+Q9UN88+P34903+O00591+O14764+Q8N1C3+P18505+P78334+P47869+P31644+Q16445). As to the kind of experiment: Binding affinity to GABAA (unknown origin) at 10 uM by radioligand binding assay relative to control. Format: protein-complex assay.
Data set [9] deals with Histamine H1 receptor (Homo sapiens) (UniProt P35367). Kind of data set: Binding affinity to H1 receptor (unknown origin) at 10 uM by radioligand binding assay relative to control.
The target in data set [10] is Vasopressin V1a receptor (Homo sapiens) (UniProt P37288). As to the kind of experiment: Binding affinity to V1a receptor (unknown origin) at 10 uM by radioligand binding assay relative to control.
The target of the next data set is L-type calcium channel (Homo sapiens, UniProt O60840+Q01668+Q13698+Q13936). As to the kind of experiment: Binding affinity to L-type calcium channel (unknown origin) at 10 uM by radioligand binding assay relative to control. Format: protein assay. The following applies: read-out: Activity.
A short description of data set [11]: Cardiotoxicity in conscious cynomolgus monkey assessed as arrhythmia at 3.125 to 12.5 mg/kg, IG measured within 24 hrs. It counts as toxicity, organism-based, Macaca fascicularis. The settings on record: in vivo, po, dose 3.125-12.5 mg/kg.
Data set [12] is described as follows: Toxicity in Sprague-Dawley rat assessed as fasciculation 2.5 to 7.5 mg/kg, po administered once daily for 4 weeks. It counts as organism-based. The following applies: in vivo, 672 h, dose 2.5-7.5 mg/kg.
Data set [13] can be described thus: Toxicity in female Sprague-Dawley rat assessed as change in prolactin level at 2.5 to 7.5 mg/kg, po administered once daily for 4 weeks and measured after 4 weeks. Format: organism-based. The settings on record: in vivo, 1344 h, dose 2.5-7.5 mg/kg, time 8 weeks.
Data set [14] is described as follows: Toxicity in female Sprague-Dawley rat assessed as change in blood glucose level at 2.5 to 7.5 mg/kg, po administered once daily for 4 weeks and measured after 4 weeks. It counts as organism-based. The following applies: in vivo, 1344 h, dose 2.5-7.5 mg/kg, time 8 weeks.
The nature of data set [15]: Toxicity in female Beagle dog assessed as change in urinalysis at 0.75 to 2.5 mg/kg, IG administered once daily for 4 weeks and measured after 4 weeks. Format: organism-based, Canis lupus familiaris. The settings on record: in vivo, po, 1344 h, dose 0.75-2.5 mg/kg, time 8 weeks.

pEC50, pIC50: −log10 of the molar value. Calls of active or inactive are those of the source. No cut-off for these calls is given here.

Sequence of Vasopressin V1a receptor (Homo sapiens) (P37288 whole entry, looked up): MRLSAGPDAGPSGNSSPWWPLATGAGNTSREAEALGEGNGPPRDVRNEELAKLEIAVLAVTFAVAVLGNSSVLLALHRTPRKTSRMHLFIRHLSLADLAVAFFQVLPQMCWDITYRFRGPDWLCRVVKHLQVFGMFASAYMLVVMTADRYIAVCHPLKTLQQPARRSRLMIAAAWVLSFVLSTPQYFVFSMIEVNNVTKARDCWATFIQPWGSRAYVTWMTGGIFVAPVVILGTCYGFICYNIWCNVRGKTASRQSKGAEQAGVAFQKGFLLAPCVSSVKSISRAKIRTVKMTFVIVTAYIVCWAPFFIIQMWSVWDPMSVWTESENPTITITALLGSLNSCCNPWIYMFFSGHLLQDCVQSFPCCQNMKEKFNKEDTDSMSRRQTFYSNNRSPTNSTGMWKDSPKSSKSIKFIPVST
Sequence of Histamine H1 receptor (Homo sapiens) (P35367 whole entry): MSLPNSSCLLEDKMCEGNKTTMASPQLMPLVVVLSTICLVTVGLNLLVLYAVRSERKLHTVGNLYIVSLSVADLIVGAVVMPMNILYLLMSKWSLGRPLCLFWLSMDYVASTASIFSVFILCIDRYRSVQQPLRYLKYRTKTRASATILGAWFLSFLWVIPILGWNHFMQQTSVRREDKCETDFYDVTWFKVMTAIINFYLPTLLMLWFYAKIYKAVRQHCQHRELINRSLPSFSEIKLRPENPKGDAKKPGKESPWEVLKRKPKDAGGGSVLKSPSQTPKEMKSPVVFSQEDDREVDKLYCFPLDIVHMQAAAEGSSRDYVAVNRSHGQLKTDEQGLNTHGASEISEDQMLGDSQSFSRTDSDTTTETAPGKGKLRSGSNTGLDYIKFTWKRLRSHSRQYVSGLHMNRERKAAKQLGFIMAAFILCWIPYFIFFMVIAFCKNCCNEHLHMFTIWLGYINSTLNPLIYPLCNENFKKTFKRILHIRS
Sequence of 5-hydroxytryptamine receptor 2C (Homo sapiens), P28335 [D134A] (P28335 whole entry D134A): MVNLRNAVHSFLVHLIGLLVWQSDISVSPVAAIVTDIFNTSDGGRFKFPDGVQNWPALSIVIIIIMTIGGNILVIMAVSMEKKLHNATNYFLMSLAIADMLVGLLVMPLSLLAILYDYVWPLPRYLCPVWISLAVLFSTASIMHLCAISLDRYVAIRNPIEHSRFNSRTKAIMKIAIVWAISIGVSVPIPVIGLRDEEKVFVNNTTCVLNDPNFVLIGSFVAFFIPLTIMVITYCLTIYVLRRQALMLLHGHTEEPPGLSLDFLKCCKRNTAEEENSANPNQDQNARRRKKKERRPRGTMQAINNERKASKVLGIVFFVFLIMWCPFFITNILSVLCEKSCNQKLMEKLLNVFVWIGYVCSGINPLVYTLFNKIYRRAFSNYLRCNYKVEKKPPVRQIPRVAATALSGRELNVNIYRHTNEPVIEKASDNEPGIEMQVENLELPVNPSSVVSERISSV
Sequence of 5-hydroxytryptamine receptor 7 (P34969 whole entry): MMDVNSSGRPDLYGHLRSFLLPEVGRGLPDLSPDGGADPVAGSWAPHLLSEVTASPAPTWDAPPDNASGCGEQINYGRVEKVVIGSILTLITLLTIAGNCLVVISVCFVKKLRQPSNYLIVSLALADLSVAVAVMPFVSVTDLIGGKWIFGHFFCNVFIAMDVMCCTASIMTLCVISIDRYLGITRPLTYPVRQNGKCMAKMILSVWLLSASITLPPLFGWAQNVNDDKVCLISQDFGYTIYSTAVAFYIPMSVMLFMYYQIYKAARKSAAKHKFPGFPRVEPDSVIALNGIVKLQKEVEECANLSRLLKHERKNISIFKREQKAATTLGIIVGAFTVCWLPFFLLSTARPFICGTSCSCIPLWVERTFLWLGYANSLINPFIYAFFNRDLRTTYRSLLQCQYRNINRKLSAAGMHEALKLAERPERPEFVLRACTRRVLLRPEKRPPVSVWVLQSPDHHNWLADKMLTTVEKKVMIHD
Sequence of D(2) dopamine receptor (P14416 whole entry): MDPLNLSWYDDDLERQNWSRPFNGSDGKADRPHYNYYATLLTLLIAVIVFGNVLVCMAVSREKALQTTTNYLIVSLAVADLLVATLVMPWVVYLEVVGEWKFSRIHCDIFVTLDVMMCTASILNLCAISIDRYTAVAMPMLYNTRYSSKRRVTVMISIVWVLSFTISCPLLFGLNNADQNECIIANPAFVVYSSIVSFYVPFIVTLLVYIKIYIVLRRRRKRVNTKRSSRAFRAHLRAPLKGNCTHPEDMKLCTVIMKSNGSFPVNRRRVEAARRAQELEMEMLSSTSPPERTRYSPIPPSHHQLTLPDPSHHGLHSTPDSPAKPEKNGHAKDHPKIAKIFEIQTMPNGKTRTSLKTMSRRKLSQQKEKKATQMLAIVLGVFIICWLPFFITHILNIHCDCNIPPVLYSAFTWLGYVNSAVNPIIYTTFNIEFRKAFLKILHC

Broadly, the pEC50 is −log10 of the EC50, conventionally taken in molar units. By pIC50 is commonly meant −log10 of the IC50, conventionally taken in molar units. For `c1cc2c(s1)[C@@H]1CNCCN1CC2`, the Activity result in [1] is “inactive”. Besides, in data set [2], the Kp at 1 h came to 6.02. Besides, the Activity result in the data set on Mus musculus [3] is “Active; More Effective Than Ulotaront”; in the data set on Mus musculus [4] it was “Dose-dependent-effect”; in the data set with Mus musculus [5], “Dose-dependent-effect”; in the data set on Mus musculus [6], 100%; in [8] it was -21.4%; in [9], 6.65%. For the same compound, the Activity was 6.93% in data set [10]; “Non-toxic” in data set [11]; “Non-toxic” in data set [12]; “Non-toxic” in data set [13]; “Non-toxic” in [14]; “Non-toxic” in [15]. In addition, the pEC50 in [7] was 4.96. This compound also gave a pIC50 at D(2) dopamine receptor of less than 4.00. Besides, the activity at 10 µM on L-type calcium channel is -7.25%.
